This passage reports absorption maximum results from the Deep4Chem optical property database.

A short description of this data set: solvent given as SMILES.

In the case of `COc1c2ccccc2c(-c2ccccc2)c2ccccc12`, the absorption maximum by setting is: (in C1COCCO1) 378 nm; (in CCCCCC) 378 nm; (in CCCCCCC) 376 nm; (in CCCCO) 378 nm; (in CCO) 378 nm; (in CN(C)C=O) 378 nm. Besides, the absorption maximum was found to be 378 nm (in Cc1ccccc1); 376 nm (in ClC(Cl)(Cl)Cl); 378 nm (in ClC(Cl)Cl); 378 nm (in ClCCl); 378 nm (in OCC(O)CO); 379 nm (in OCCO).
As for `C1=C(c2ccccc2)C(c2ccccc2)=CC1c1ccccc1`, the absorption maximum (in C1CCOC1) stood at 290 nm.
As to `c1ccc2c([SiH](c3c4ccccc4cc4ccccc34)c3c4ccccc4cc4ccccc34)c3ccccc3cc2c1`, the absorption maximum (in ClC(Cl)Cl) amounted to 401 nm.
Under “in Cc1ccccc1”, `Cc1cc(C#N)ccc1N1c2ccccc2C(c2ccccc2)(c2ccccc2)c2ccccc21` yielded an absorption maximum of 349 nm.
Molecule `CN(C)c1ccc(-c2nc3nc4ccccc4nc3n2-c2ccc(C(C)(C)C)cc2)cc1` had an absorption maximum (in CC#N) of 411 nm.
For the setting “in ClCCl”, `CCN(CC)c1ccc2c(c1)OC1=[N+](c3ccc(I)cc3)[B-](F)(F)n3c(nc4ccccc43)C1=C2` gave an absorption maximum of 496 nm.
Regarding `COc1cccc(-n2c(-c3ccc(O)cc3)nc(C)c2C)c1`, the absorption maximum reads like this: (in CC#N) 288 nm; (in CCO) 292 nm; (in CO) 287 nm.
In the case of `CCC1=C(C)C2=Cc3c4ccccc4c4n3[B-](c3cc[n+](C)cc3)(Oc3ccccc3-4)[N+]2=C1C` (stereo not given), the absorption maximum runs as follows: (in CO) 621 nm; (in CS(C)=O) 626 nm.
With `C1=C(c2ccc(-c3cccs3)s2)CCCC1`, the absorption maximum runs as follows: (in C1CCOC1) 341 nm; (in CC#N) 342 nm; (in CCCCCC) 341 nm; (in CCO) 344 nm; (in OCCOCCO) 345 nm; (in c1ccncc1) 345 nm.
Turning to `Cc1cc(C2=C(c3c(C)sc(-c4ccc(-c5nc(-c6ccccc6)c(-c6ccccc6)[nH]5)cc4)c3C)C(F)(F)C(F)(F)C2(F)F)c(C)s1`, where the note is “in C1CCOC1”, the absorption maximum is recorded as 336 nm.
On to `CN(C)c1ccc(C#Cc2ccc(C#Cc3ccc(C#Cc4ccccc4C#N)cc3C#N)cc2C#N)cc1`, for which the absorption maximum was determined as 422 nm (in C1CCOC1); 413 nm (in CC#N); 426 nm (in CN(C)C=O); 425 nm (in ClC(Cl)Cl); 426 nm (in c1ccccc1).
For the setting “in ClCCl”, `CC(C)(C)NC(=O)c1cccc2ccc3c4ccc(F)cc4c4cc(F)ccc4c3c12` returned an absorption maximum of 329 nm.
Molecule `F[B-]1(F)n2c(cc3c4ccccc4oc32)C(c2ccccc2)=C2C=c3c(oc4ccccc34)=[N+]21` came in with an absorption maximum (in C1CCCCC1) of 586 nm, an absorption maximum (in CCOC(C)=O) of 581 nm and an absorption maximum (in CO) of 579 nm.
For the molecule `N#Cc1cc2ccccc2[nH]1`, the absorption maximum by setting is: (in C1COCCO1) 281.6 nm; (in CC#N) 279.69 nm.
For the setting “in CC#N”, `Oc1ccc2ccccc2c1/C=N/c1cc2ccccc2cc1/N=C/c1c(O)ccc2ccccc12` gave an absorption maximum of 474 nm.
Molecule `CCn1c(-c2ccc(-c3ccc4ccc5cccc6ccc3c4c56)cc2)c(-c2ccc3ccccc3c2)c(-c2ccc3ccccc3c2)c1-c1ccc(-c2ccc3ccc4cccc5ccc2c3c45)cc1` gave an absorption maximum (in CCOC(C)=O) of 344 nm.
In the case of `COc1ccccc1-n1nc(C#N)c(N2CCCC2)n1`, the absorption maximum (in CC#N) is recorded as 318 nm.
As for `COc1ccc2c(=O)c3c([nH]c2c1)-c1cc(Cl)ccc1NC3(C)C`, the absorption maximum runs as follows: (in C1CCOC1) 411 nm; (in CC#N) 421 nm; (in CCCCO) 426 nm; (in CCCO) 426 nm; (in CCO) 426 nm; (in CCOC(C)=O) 417 nm. Further, the absorption maximum runs as follows: (in CN(C)C=O) 425 nm; (in CO) 428 nm; (in CS(C)=O) 426 nm; (in Cc1ccccc1) 405 nm; (in ClC(Cl)(Cl)Cl) 419 nm; (in ClCCl) 408 nm. The absorption maximum amounted to 405 nm (in O) and 420 nm (in c1ccccc1).
For `C(=C\c1c2ccccc2cc2ccccc12)/c1ccc2ccccc2c1`, the absorption maximum is, setting by setting: (in CC1CCCCC1) 386 nm; (in CC#N) 387 nm.
In turn, `C(=N\c1ccc(-c2cn3nc(-c4cccs4)sc3n2)cc1)/c1ccc2ccc3cccc4ccc1c2c34` came in with an absorption maximum (in ClC(Cl)Cl) of 403 nm.
Under “in ClCCl”, `COc1cccc2cc(C#N)c(=N)oc12` yielded an absorption maximum of 364 nm.
Take `CCCCCCCCN1c2ccc(C#Cc3ccc(OC)cc3)cc2Sc2cc(C=O)ccc21`: the absorption maximum came out at 378 nm (in C1CCOC1); 380.01 nm (in CC#N); 374 nm (in CCCCCC); 351.11 nm (in CO); 383.45 nm (in CS(C)=O); 383 nm (in Cc1ccccc1). Besides, where the note is “in ClC(Cl)Cl”, the absorption maximum worked out at 382.5 nm.
As for `ClP1(Cl)=NP(Cl)(Cl)=NP(Cl)(Oc2ccc3ccc4cccc5ccc2c3c45)=N1` (stereo not given), the absorption maximum (in ClCCl) was found to be 343 nm.
For the setting “in ClCCl”, `CCCCN(CCCC)c1ccc(C#Cc2cc(C#Cc3ccc([N+](=O)[O-])cc3)c(C#Cc3ccc(N(CCCC)CCCC)cc3)cc2C#Cc2ccc([N+](=O)[O-])cc2)cc1` displayed an absorption maximum of 448 nm.
Molecule `Cc1ccc(-n2c3ccccc3c3cc(C(=C(C#N)C#N)c4ccccc4)ccc32)cc1` gave an absorption maximum (in C1CCOC1) of 442 nm; an absorption maximum (in CC#N) of 445 nm; an absorption maximum (in CC(C)=O) of 442 nm; an absorption maximum (in CCOC(C)=O) of 442 nm; an absorption maximum (in CO) of 447 nm; an absorption maximum (in CS(C)=O) of 453 nm. In addition, the absorption maximum by setting is: (in Cc1ccccc1) 447 nm; (in ClC(Cl)Cl) 458 nm.
For `COc1ccc(-c2nc3c(ccc4ccccc43)oc2=O)cc1`, under “in c1ccccc1”, the absorption maximum turned out to be 410 nm.
Regarding `FC(F)(F)c1ccc2c(c1)Nc1ccccc1S2`, the absorption maximum runs as follows: (in CC#N) 322 nm; (in CO) 324 nm.
In the case of `C=CC1CN2CCC1CC2[C@@H](OCc1ccccc1)c1ccnc2ccc(O)cc12` (stereo not given in full), the absorption maximum runs as follows: (in C1CCOC1) 338 nm; (in CC#N) 335 nm; (in CCCC#N) 337 nm; (in Cc1ccccc1) 335 nm; (in ClCCl) 334 nm.
`CCn1c2cc(C(C)(C)C)ccc2c2c3nsnc3c3c4ccc(C(C)(C)C)cc4n(CC)c3c21`: the absorption maximum (in CN(C)C=O) is reported as 430 nm, the absorption maximum (in Cc1ccccc1) is on record as 425 nm and the absorption maximum (in ClCCl) turned out to be 430 nm.
For `COC(=O)/C=C/c1sc(-c2ccc(N(C)C)cc2)cc1N`, the absorption maximum (in CC#N) turned out to be 419 nm.
With `CC(C)(C)c1ccc2oc3nc4oc5ccc(N6c7ccccc7Oc7ccccc76)cc5c4cc3c2c1`, for the setting “in ClC(Cl)Cl”, the absorption maximum is 347 nm.
Molecule `C[Si]1(C)O[Si](C)(C)c2cc3nc4ccccc4c(-c4ccccc4)c3cc2[Si](C)(C)O1` came in with an absorption maximum (in ClCCl) of 368 nm.
For the molecule `CCOC(=O)C1=CN(c2ccccc2)C=CC1c1ccccc1` (stereo not given), the absorption maximum is, setting by setting: (in C1CCOC1) 344 nm; (in CO) 348 nm.
Under “in ClCCl”, `c1ccc(N2N=C(c3cccc4ccccc34)CC2c2ccc3ccc4cccc5ccc2c3c45)cc1` (stereo not given) came in with an absorption maximum of 391 nm.
`O=P1(c2ccccc2)c2cc(N3c4ccccc4Oc4ccccc43)ccc2-c2ccc(N3c4ccccc4Oc4ccccc43)cc21` showed an absorption maximum (in Cc1ccccc1) of 418 nm.
For the setting “in C1CCOC1”, `COc1cc(/C=C2\C=C(c3ccccc3)C=C2c2ccccc2)cc(OC)c1` came in with an absorption maximum of 436 nm.
Under “in Cc1ccccc1”, `COc1cc(C2=C(c3ccc(C(C)(C)C)cc3)C(c3ccc(C(C)(C)C)cc3)=[N+]3C2=Nc2c(-c4cc(OC)c(OC)c(OC)c4)c(-c4ccc(C(C)(C)C)cc4)c(-c4ccc(C(C)(C)C)cc4)n2[B-]3(F)F)cc(OC)c1OC` yielded an absorption maximum of 675 nm.
As for `C(S/C=C/c1ccc(/C=C/SC=C(c2ccccc2)c2ccccc2)cc1)=C(c1ccccc1)c1ccccc1`, the absorption maximum (in ClCCl) is listed as 366 nm.
In the case of `CCN1c2ccccc2Sc2cc(/C=C(\C#N)c3ccccc3)ccc21`, the absorption maximum by setting is: (in C1CCOC1) 411 nm; (in CC#N) 409 nm; (in CC(C)=O) 410 nm; (in CN(C)C=O) 414 nm; (in CS(C)=O) 418 nm; (in Cc1ccccc1) 412 nm. For the same molecule, the absorption maximum (in ClCCl) was found to be 413 nm.
Molecule `CCCCCCCCCc1c2ccccc2cc2c1oc1c3oc4c5oc6cc7ccccc7cc6c5c5ccccc5c4c3c3ccccc3c21` had an absorption maximum (in C1CCOC1) of 420 nm.
With `Cc1cc(C)cc(NC(=O)c2sc(Br)nc2C)c1`, the absorption maximum (in C1CCOC1) amounted to 293.4 nm; the absorption maximum (in CC#N) amounted to 285 nm; the absorption maximum (in CCCCCC) amounted to 280.5 nm; the absorption maximum (in CCOC(C)=O) came out at 282.5 nm; the absorption maximum (in CN(C)C=O) worked out at 285.3 nm; the absorption maximum (in CO) is reported as 271.5 nm. In addition, the absorption maximum runs as follows: (in CS(C)=O) 283.1 nm; (in ClC(Cl)Cl) 278 nm.
With `C=CCNc1ccc2ccc3oc4cc(=[N+]5CCCC5)ccc-4nc3c2c1`, the absorption maximum is, setting by setting: (in CC#N) 576 nm; (in CCO) 570 nm; (in ClCCl) 588 nm; (in O) 556 nm.
As to `CN(C)c1ccc(/C=C/c2ccc(-c3cc(-c4ccccn4)nc(-c4ccccn4)c3)cc2)cc1`, the absorption maximum reads like this: (in C1CCOC1) 375 nm; (in C1COCCO1) 369 nm; (in CC#N) 379 nm; (in CCO) 379 nm; (in ClCCl) 381 nm.
In turn, `c1cc(-n2c3ccccc3c3ccccc32)c(-c2nc3ccccn3n2)c(-n2c3ccccc3c3ccccc32)c1` registered an absorption maximum (in Cc1ccccc1) of 338 nm.
